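Step 1: Grow cells in 96-well plates. Step 2: Expose to compound for 48 hours at 5 concentrations. Step 3: Interpolate endpoints linearly; if unreached, use highest concentration. GI50 = concentration required for 50% inhibition of growth. Definition used: TGI = concentration required for complete inhibition of growth.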
How the values were obtained:
Experiment in all cases: inhibition of tumour cell growth, NCI panel, 48 h
COLO 205 colon = tested on: COLO 205 colon
DU-145 prostate = tested on: DU-145 prostate
HCC-2998 colon = tested on: HCC-2998 colon
NCI-H23 lung = tested on: NCI-H23 lung
PC-3 prostate = tested on: PC-3 prostate
SF-268 CNS = tested on: SF-268 CNS
SNB-19 CNS = tested on: SNB-19 CNS
UACC-257 melanoma = tested on: UACC-257 melanoma
UO-31 renal = tested on: UO-31 renal
SK-OV-3 ovarian = tested on: SK-OV-3 ovarian

Structure (SMILES)	TGI (COLO 205 colon) [µM]	TGI (DU-145 prostate) [µM]	TGI (HCC-2998 colon) [µM]	TGI (NCI-H23 lung) [µM]	TGI (PC-3 prostate) [µM]	TGI (SF-268 CNS) [µM]	TGI (SNB-19 CNS) [µM]	TGI (UACC-257 melanoma) [µM]	TGI (UO-31 renal) [µM]	TGI (SK-OV-3 ovarian) [µM]	GI50 (DU-145 prostate) [µM]	GI50 (HCC-2998 colon) [µM]	GI50 (PC-3 prostate) [µM]	GI50 (SF-268 CNS) [µM]	GI50 (SNB-19 CNS) [µM]
COc1cc(/C=C/C2=NN(c3cccc(S(=O)(=O)O)c3)C3(C2)SCC(=O)N3c2nc3ccccc3s2)cc(OC)c1OC (stereo not given)	> 100	> 100	> 100	> 100	> 100	> 100	> 100	> 100	> 100	–	–	–	–	–	–
CCSc1[nH]c(NC(=NC(C)C)NC(=O)c2ccccc2)c(C(N)=O)c1C(N)=O	> 10	> 10	> 10	> 10	> 10	> 10	–	> 10	–	> 10	–	–	–	–	–
COC(=O)[C@@H](NC(=O)c1ccc(CNC(=O)/C(C)=C/c2ccccc2)cc1)C(C)C	> 100	> 100	79.9	> 100	> 100	> 100	> 100	39	> 100	> 100	–	–	–	–	–
COc1cc(O)c2c(=O)c(OC)c(-c3ccc(OC)c(OC)c3)oc2c1.[Sn]	> 100	> 100	> 100	–	> 100	> 100	> 100	–	> 100	> 100	> 100	> 100	68.5	> 100	> 100
O=c1cc(NNc2cccc(F)c2)[nH]c(=S)[nH]1	> 100	> 100	> 100	–	> 100	> 100	> 100	> 100	> 100	–	–	–	–	–	–
NCCN(CCN)/[N+]([O-])=N/O	> 100	> 100	> 100	> 100	> 100	> 100	> 100	> 100	> 100	> 100	–	–	–	–	–
CC(=O)N1CCN(CCCCN2c3ccccc3Sc3cc(N=[N+]=[N-])ccc32)CC1	29.7	32.1	28.5	30.1	20	39.1	29.6	40.2	23.5	–	–	–	–	–	–
Cc1cc2c(cc1-c1cc3c(cc1C)C(C(C)C)=C(O)C(=O)/C3=C\Nc1ccccn1)/C(=C/Nc1ccccn1)C(=O)C(O)=C2C(C)C	> 100	> 100	60.2	> 100	> 100	> 100	> 100	> 100	–	–	–	–	–	–	–
O=C1C(c2c(O)[nH]c3ccc(I)cc23)=Nc2ccccc21	> 100	> 100	> 22.9	45.7	9.4	17.2	42.8	> 75.1	14.4	22.8	–	–	–	–	–
CCOC(=O)[C@H](CO)Nc1c(O)c2c(c(O)c1Cl)C(=O)C=CC2=O	> 10	> 10	> 10	> 10	> 10	> 10	> 10	> 10	–	> 10	–	–	–	–	–
CCOC(=O)C(NC(=O)c1ccccc1)(Nc1ccc(S(=O)(=O)Nc2ccc(OC)nn2)cc1)C(F)(F)F (stereo not given)	> 100	> 100	> 100	> 100	> 100	> 100	> 100	> 100	> 100	> 100	–	–	–	–	–
O=C1CCc2ccccc2O1	> 100	> 100	> 100	> 100	> 100	> 100	> 100	> 100	> 100	> 100	–	–	–	–	–
CC1(C)OC2[C@@H](CO[C@@]3([C@H]4OC(C)(C)O[C@@H]4CO)OC(C)(C)O[C@@H]23)O1 (stereo not given in full)	> 100	> 100	> 100	> 100	> 100	> 100	> 100	–	> 100	> 100	–	–	–	–	–
O=C(NCCCc1cn[nH]c(=O)n1)c1cccc2nc3ccccc3nc12	> 100	> 100	> 100	> 100	> 100	> 100	> 100	> 100	–	> 100	–	–	–	–	–
CC(C)(CO)NC(=O)c1cccs1	> 100	> 100	> 100	> 100	> 100	> 100	> 100	> 100	> 100	> 100	–	–	–	–	–
COc1cc(C2c3cc4c(cc3OC(NNc3ccccc3)C2C)OCO4)cc(OC)c1O (stereo not given)	17.9	17.5	2.87	29.4	14.9	27.4	32.5	20	13.3	22.7	–	–	–	–	–
N#Cc1c(O)c(C=O)c(=O)n2c1[nH]c1ccccc12	> 100	> 100	> 100	> 100	> 100	> 100	> 100	> 100	> 100	> 100	–	–	–	–	–
COc1ccc(N2C(=O)C(=O)C3(CCCCC3)C2=O)c(OC)c1OC	> 100	> 100	–	> 100	> 100	> 100	> 100	> 100	> 100	> 100	–	–	–	–	–
O=C(CBr)NCCc1c[nH]c2ccccc12	3.19	4.19	24.9	3.19	4.03	7.59	20	8.54	3.2	7.31	–	–	–	–	–
Cc1sc2nc3n(c(=O)c2c1C)N=C(c1ccccc1)CS3	> 100	> 100	> 100	> 100	> 100	> 100	–	> 100	> 100	> 100	–	–	–	–	–
Cc1ccc(S(=O)(=O)NCCCSCCO)cc1	> 100	> 100	> 100	> 100	> 100	> 100	> 100	> 100	> 100	> 100	–	–	–	–	–
CC(=O)OC12OC(C)(C3C(=O)N(c4ccccc4)C(=O)C31)N(c1ccccc1)C2=O (stereo not given)	> 100	> 100	> 100	> 100	> 100	> 100	> 100	> 100	> 100	> 100	–	–	–	–	–

Source: PubChem BioAssay (NCI)
